Test results published in patent US10287298B2, “Nitrogen-containing analogs of salinomycin, synthesis and use against cancer stem cells and malaria” (Centre National de la Recherche Scientifique (CNRS), priority 2014, dated 2019).
Entries after “also recorded” stand apart in the source; their conditions may differ. Read-outs that look alike come from different tables or passages of the source.

Legend:
[1] = tested on: MDA-MB-231 cells; assay: Dead cells by DIOC6(3)/DAPI test with cathepsine B inhibitor; format: cell-based, Human; settings: 500 nM; COA74-Me 30 μM; 48 h, 96 h, 108 h
Method: From the treatment, dead cells were assessed by DIOC6(3)/DAPI test and analyzed by flow cytometry.

[2] = tested on: MCF-7 xenograft; assay: Xenograft tumor formation; format: in vivo, mice; settings: 3 mg per kg body weight per day, intra peritoneal
Method: Human breast cancer cell line MCF-7 cells cultures were collected, enzymatically dissociated, washed in PBS, and resuspended in PBS/Matrigel mixture (1:1 volume). 0.1 ml of this mixture was then implanted in the mammary fat pad of 5-week-old female AthymicNude-Fox1nu mice (Harlan, France). The mice were maintained in individually-ventilated cages (Tecniplast, France) under constant temperature and humidity; all experiments were performed under laminar flow (Tecniplast France). The mice received estradiol supplementation (0.4 mg/kg) in the same day and 7th day from cell injection, and were observed and palpated for tumor appearance. The mice received Salinomycine analogue (here AM5, 3 mg per kg body weight per day, intra peritoneal injection) every 5 opened days of the week for 33 days. Tumor growth was measured weekly using calipers. Tumor volume was determined using the standard formula: L×W2×0.52, where L and W are the longest and shortest diameters, respectively. […]
Xenograft tumor formation experiments: MCF-7 cell cultures were collected, enzymatically dissociated, washed with PBS, and re-suspended in a PBS/Matrigel mixture (1:1 v/v). […] Tumor growth was measured weekly using calipers. Tumor volume was determined using the standard formula: L×W2×0.52, where L and W are the longest and shortest diameters, respectively. […]

[3] = Toxicity assessment (histology, body weight); format: in vivo, mice; settings: effective dose
Source text: FIG. 15 is a graph representing the mice body-weight during treatment with AM5. Error bars for mice body weight represent s.d. and correspond to correspond to five animals per group.
Histology. Organs from mice were removed at time of sacrifice. For morphological analyses, organs were fixed with 4% paraformaldehyde, paraffin embedded, and 4-μm sections were stained with hematoxylin and eosin (H&E). Sections were scanned at high resolution using a slide scanner (NanoZoomer 2.0-HT, Hamamatsu, Massy, France).

[4] = tested on: SW480; assay: Cell death IC50, Annexin V-FITC/PI flow cytometry; format: cell-based; settings: Homo sapiens, read-out: IC50 SW480
Method: (§1) The cells were seeded in a 6-well plate at density 5.105 cells/well and cultured overnight. The cells were then treated with various concentration (15, 30, 100, 500, 1000 and 10.000 nM) of salinomycine, AM5 and AM23 for 72 h, 96 h and 108 h. After treatment, cell death was quantified using Annexin V-FITC/Propidium Iodide (PI) assay according to the manufacturer's protocol (FITC Annexin V Apoptosis Detection Kit II, 556570, BD Pharmingen™) and analyzed by a LSRFortessa™ flow cytometer (BD Bioscience, San Jose, Calif.). The data were processed using Cell Quest software (BD Biosciences). Dose-response cell death curves were determined for indicated time.
(§2) For tumor cells, the cells are classified in function of their sensitivity of drugs. Here, the most sensitive cells are incubated for 72 h, the middle sensitive cells for 96 h and the less sensitive or resistant cells are incubated for 108 h with drug at several concentrations.
(§3) Concentrations of 30 nM, 500 nm and 1 μM were used for determining the IC50 of drugs.
(§4) Intervals][…]] mean that IC50 is included in this interval with exclusion of the valor 30 nM.
(§5) The SW620 and SW480 cell lines are from colon tumors.

[5] = tested on: SW620; assay: Cell death IC50, Annexin V-FITC/PI flow cytometry; format: cell-based; settings: Homo sapiens, read-out: IC50 SW620
Method: as §1, §2, §3, §4, §5

[6] = tested on: HMLER CD24low cells; assay: Intracellular sodium measurement (SBFI-AM); format: cell-based, Human; settings: 5 min treatment
Method: Intracellular sodium measurement: Sodium and potassium buffers (10 mM HEPES, 1 mM CaCl2, 1 mM MgCl2, 130 mM Sodium-D-Gluconate or Potassium-D-Gluconate, 30 mM NaCl/KCl) were mixed at different ratios to produce five buffers with various sodium concentrations (0, 20, 40, 80, 160 mM). Nigericin (N7143, Sigma, 10 μM) and monensin (M5273, Sigma, 10 μM) were used to equilibrate the intracellular sodium concentration and establish a calibration curve. HMLER CD24low cells were harvested and re-suspended in ECS buffer (15 mM HEPES, 5.4 mM KCl, 140 mM NaCl, 10 mM Glucose, 1 mM MgCl2, 1.8 mM CaCl2, 0.1% BSA, pH 7.6) containing 10 μM of the sodiumspecific probe (SBFI-AM, S-1263, Molecular Probes®) and 0.2% Pluronic F-127 (P2443, Sigma) and were incubated for 1 h in the dark at 37° C. Then, cells were washed to remove excess dye and incubated for an additional 30 min in ECS buffer. […] Each well was sequentially excited at 340 and 370 nm and emission was recorded at 500 nm. The spectral response of SBFI upon sodium binding was assessed by excitation ratio measurement (340/370 nm). Measurements were performed on a Perkin Elmer Wallac 1420 Victor2 Microplate Reader at 37° C.

[7] = tested on: TICs; settings: cited from earlier work

| SMILES | death of MDA-MB-231 cells in combination with cathepsine B inhibition [1] | tumor volume and tumor weight ([2]; 33 days) | tumor growth ([2]; MCF-7 xenograft-bearing mice) | body weight throughout treatment [3] | generic toxicity (integrity of peripheral tissues) ([3]; H&E histology) | IC50 ([4]; SW480, 3rd sensibility (108 h), colon tumor cells) [nM] | IC50 ([5]; SW-620, 3rd sensibility (108 h), colon tumor cells) [nM] | IC50 ([4]; SW480, 108 h) [nM] | IC50 ([5]; SW-620, 108 h) [nM] | intracellular sodium [6] | efficacy in reducing the amount of TICs relative to paclitaxel [7] [fold] |
| --- | --- | --- | --- | --- | --- | --- | --- | --- | --- | --- | --- |
| C#CCN[C@@H]1C=C[C@]2(O[C@H]([C@@H](CC)C(=O)[C@@H](C)[C@@H](O)[C@H](C)C3O[C@@H](C(CC)C(=O)O)CC[C@@H]3C)[C@@H](C)C[C@H]2C)O[C@@]12CC[C@@](C)([C@H]1CC[C@](O)(CC)[C@H](C)O1)O2 (stereo partly drawn) [AM5, Sal-Propargylamine] | combine themselves to induce the death | lower | inhibits breast cancer tumor growth; also recorded: prevented tumor growth | constant body weight | No generic toxicity was observed | 30 to 500 | 30 to 500 |  |  |  |  |
| CCC(C(=O)O)[C@H]1CC[C@H](C)C([C@@H](C)[C@H](O)[C@H](C)C(=O)[C@H](CC)[C@H]2O[C@]3(C=C[C@@H](O)[C@]4(CC[C@@](C)([C@H]5CC[C@](O)(CC)[C@H](C)O5)O4)O3)[C@H](C)C[C@@H]2C)O1 (stereo partly drawn) [Salinomycine, Salinomycin] | combine themselves to induce the death |  |  |  |  |  |  | 30 to 500 | 500 to 1000 | induced a fast increase in intracellular sodium | 100 |
